Test results reported in paper PMC4088952 (Psychoneuroendocrinology, 2014).
“And” between values parts separate entries of the source, which are not always exact repeats. Identical values can stand only once.

Legend:
subjective drug effects = test: Drug Effects Questionnaire; assay type: in vivo, humans; settings: oral MDMA; all subjective ratings (DEQ and VAS)
plasma OT levels = test: Plasma oxytocin levels after oral MDMA; assay type: in vivo, humans
[1] = system: heart rate and blood pressure; test: Cardiovascular measures; assay type: in vivo, humans; settings: intranasal oxytocin 20 IU or 40 IU versus placebo

SMILES	time of peak effects on all subjective ratings after capsule ingestion (subjective drug effects)	plasma OT levels compared to placebo (plasma OT levels; oral MDMA 0.75 mg/kg, N=14, t[13] = 2.96, p = 0.07)	duration of plasma OT elevation (plasma OT levels; oral MDMA 1.5 mg/kg)	time of mean peak plasma OT concentration after capsule ingestion (plasma OT levels; oral MDMA 1.5 mg/kg, N=14)	time to significantly elevated plasma OT following capsule administration (plasma OT levels; oral MDMA 1.5 mg/kg, first time point)	plasma OT levels compared to placebo (intranasal oxytocin 20 IU, N=6)	duration of plasma OT elevation (intranasal oxytocin 40 IU)	time of peak plasma OT after nasal spray administration (intranasal oxytocin 40 IU, N=8)	cardiovascular and subjective effects [1]
CNC(C)Cc1ccc2c(c1)OCO2 (racemic) [MDMA, ±3,4-methylenedioxymethamphetamine]	60 to 120 min	slightly increased compared to placebo but this difference did not reach significance	3 h	90 to 120 min and 120 min	≤ 60 min	–	–	–	–
CC[C@H](C)[C@@H]1NC(=O)[C@H](Cc2ccc(O)cc2)NC(=O)[C@@H](N)CSSC[C@@H](C(=O)N2CCC[C@H]2C(=O)N[C@@H](CC(C)C)C(=O)NCC(N)=O)NC(=O)[C@H](CC(N)=O)NC(=O)[C@H](CCC(N)=O)NC1=O [Oxytocin, oxytocin]	–	–	–	–	–	did not observe an increase in plasma OT	30 min	30 to 60 min	no cardiovascular or subjective effects
